# Columns and labels:
# [1] = tested on: human peripheral blood mononuclear cells (PBMC); assay: PBMC cytokine levels, CD3/CD28 stimulated condition; format: cell-based; settings: for Relative level of CCL17, observed / Relative level of IL-4, observed / Relative level of IL-13, observed: blanc = 1, 0.2 wt % 2′-FL, 0.1 wt % 3′-GL, mean
# Method: Isolation of PBMC from healthy donors: Human peripheral blood mononuclear cells (PBMC) from healthy donors were isolated from buffy coats (Sanquin, Amsterdam, the Netherlands). PBMC were obtained by centrifugation using Leucosep tubes (Greiner Bio-One). PBMC were collected and washed in PBS (Gibco, Thermo Fisher Technologies)+2% heat-inactivated FCS (Invitrogen), followed by hypotonic lysis of erythrocytes with sterile lysis buffer (0.15 M NH4Cl, 0.01 M KHCO3 and 0.1 mM EDTA, pH of 7.4 at 4° C., all from Merck, Darmstadt, Germany). After lysis, the PBMC were resuspended in freezing medium (70% RPMI 1640 medium (Gibco, Thermo Fisher Technologies) supplemented with 10% heat-inactivated FCS and 100 U/ml penicillin-streptomycin, 20% heat-inactivated FCS and 10% DMSO (Sigma)) and cryopreserved.
# PBMC activation model: PBMC (0.2.10^6 cell/well) were cultured in 96-well flat bottom plates (Corning). For 24 hours the cells were pre-incubated with 2′-FL (Jennewein), 3′-GL (0-0.3% w/v; Carbosynth) or sodium butyrate (0.2 mM; Sigma Aldrich) and combinations thereof. Subsequently, the cells were CD3/CD28-activated (Pelicluster CD3 and Pelicluster CD28, Sanquin) for an additional 24 hours. After incubation, IFNγ was measured by ELISA in the supernatants (see below). To determine cell activity after stimulation, PBMC were incubated with cell proliferation reagent WST-1 (10 μl; Roche) and/or 10% Triton (5 μl; negative control). After 3 hours, absorbance was measured at OD450 nm and OD650 nm and cell activity was calculated according to manufacturer's instructions.
# Cytokine production of PBMC: PBMC were incubated with indicated reagents. After incubation, the supernatants were collected and IL2, IL6, IL10, IL13, IL21, TNFα, IFNγ, MIF, CCL1, CCL13, CCL17, CCL20, CCL22 and CXCL8-11 levels were measured by conducting a validated multiplex immunoassay based on Luminex technology (xMAP, Luminex Austin Tex. USA). Acquisition was conducted with the Biorad FlexMAP3D (Biorad laboratories, Hercules USA) in combination with xPONENT software version 4.2 (Luminex). Data was analyzed by 5-parametric curve fitting using Bio-Plex Manager software, version 6.1.1 (Biorad).
# After PBMC stimulation, cell culture supernatants were collected, after which cytokine responses were measured in order to test immune responsiveness of the cells. […] In addition, since each donor is reacting in its own efficiency onto the T cell stimulus, we calculated the individual index of cytokine response by dividing the intervention induced response by the basal stimulated response.
# Subsequently, in order to test the direct effect of specific compounds on PBMC activity, the cells were activated with CD3/CD28 for 24 hours after a pre-incubated for 24 h with either 2′-FL, 3′-GL and combinations thereof. In addition, since each donor is reacting in its own efficiency onto the T cell stimulus, the individual index of cytokine response was calculated by dividing the intervention induced response by the basal stimulated response (the blanc is set at 1). In this way the intervention within 10 different donors has been studied.
# [2] = tested on: human peripheral blood mononuclear cells (PBMC); assay: PBMC cell activity (WST-1); format: cell-based; settings: after 24 h
# Method: PBMC activation model: PBMC (0.2.10^6 cell/well) were cultured in 96-well flat bottom plates (Corning). For 24 hours the cells were pre-incubated with 2′-FL (Jennewein), 3′-GL (0-0.3% w/v; […] Sigma Aldrich) and combinations thereof. Subsequently, the cells were CD3/CD28-activated (Pelicluster CD3 and Pelicluster CD28, Sanquin) for an additional 24 hours. After incubation, IFNγ was measured by ELISA in the supernatants (see below). […] Roche) and/or 10% Triton (5 μl; negative control).
# [3] = tested on: fecal slurry microbiota of breast fed infants; assay: Anaerobic fermentation of infant fecal slurry (BioLector Pro), acidification; set-up: species or system human; settings: no pathogen spiking
# Method: Anaerobic fermentation of fecal slurry samples was tested in a BioLector Pro microfluidics mini multifermentor. Fecal slurry samples were collected from breast fed infants and from formula fed infants. These fecal slurry samples were processed by adding 0.6 grams feces in 40 ml Baby Reichardt V.6 medium+mucus+Ammonium sulfate+lactate and acetate. The resulting solutions were inserted to the BioLector Pro microfluidics mini multifermentor. The test legs were supplemented with 3-GL, 2′-FL, 3-GL+2′-FL, and GOS/FOS. The control leg was supplemented with sterile water.
# After fermentation the fermented solutions were tested for SCFA content (in particular acetic acid, propionic acid, butyric acid and isobutyric acid), ammonia content, lactate content and pathogen concentration. Also DNA-isolation+identification and 16s sequencing was performed to determine the composition of the microbiota.
# A 32 well plate that can handle low pH was used. […]
# The experiment was started, and pH setpoint was either 5.5 (facial inoculum from infant 1, vaginally born, breast fed) or pH 6.0 (Inoculum from infant 2, vaginally born, breast fed) with continuous pH regulation, and temperature 37° C., humidity 85%, OD control. […] For both inocula the extent of fermentation, as measured by NaOH consumption, i.e. acid production, was highest with the combination of 3′-GU2′-FL, when compared to 3′-GL or 2′-FL alone. […]
Compound,CCL17 levels [1],levels of IL-4 and IL-13 compared to control [1],"Relative level of CCL17, observed [1]","Relative level of IL-4, observed [1]","Relative level of IL-13, observed [1]",Immune cell activity as measured by WST [2],"extent of fermentation, as measured by NaOH consumption, i.e. acid production ([3]; both inocula, 2.5% (w/v) carbohydrate)",rate of initial acidification [3]
"C[C@@H]1O[C@@H](O[C@H]2[C@H](O[C@H]3[C@H](O)[C@@H](O)C(O)O[C@@H]3CO)O[C@H](CO)[C@H](O)[C@@H]2O)[C@@H](O)[C@H](O)[C@@H]1O (stereo partly drawn) [2′-FL, α-L-Fuc-(1→2)-β-D-Gal-(1→4)-D-Glc]",no significant effect on CCL17 levels,had no effect on the levels of IL-4 and IL-13,1.061,0.9887,1.039,significantly increased,slower and lower acidification,–
Gal (beta 1-3)-Gal (beta 1-4)-Glc [3′-GL],no significant effect on CCL17 levels,a decrease was detected,0.6212,0.5825,0.5472,decrease in activation,–,high

# Reference: patent US20220079962A1, “NUTRITIONAL COMPOSITION COMPRISING 2'FUCOSYLLACTOSE AND DIETARY BUTYRATE” (N.V. Nutricia, priority 2019, published 2022)
